Results: patent US20140045908A1, “HSP90 INHIBITORY COMPOUNDS IN TREATING JAK/STAT SIGNALING-MEDIATED CANCERS” (SYNTA PHARMACEUTICALS CORP., priority 2011, published 2014)

Experiments:
[1] = test system: JAK2/STAT3 signaling in HCC827 cells; experiment: Western blot of constitutive and IL-6 induced STAT3 activity in HCC827 cells; assay type: cell-based, human
Protocol: HCC827 lung cancer cells were treated with increasing concentrations of ganetespib or P6 for 24 h followed by a 15 min stimulation with or without 50 ng/ml human recombinant IL-6. The levels of JAK2, total and phospho-STAT3, and PIM2 were analyzed by western blot. GAPDH is included as a loading control.
(§1) Cells were disrupted in lysis buffer (CST) and solubilized in 2% SDS. Xenograft tumors (average volume of 100-200 mm3) were excised, cut in half, and flash frozen in liquid nitrogen. Each tumor fragment was lysed in 0.5 mL of lysis buffer using a FastPrep-24 homogenizer and Lysing Matrix A (MP Biomedicals, Solon, Ohio, USA) and lysates clarified by centrifugation. Equal amounts of proteins were resolved by SDS-PAGE and immunoblotted with indicated antibodies. The antigen-antibody complex was visualized and quantitated using an Odyssey system (LI-COR, Lincoln, Nebr., USA).

[2] = test system: JAK2 signaling in DU145 cells; experiment: Western blot of JAK/STAT proteins in DU145 cells; assay type: cell-based, human
Protocol: DU145 cells were dosed with graded concentrations of ganetespib for 24 h and cell lysates subject to western blot to determine JAK/STAT and target protein levels using the antibodies indicated.
DU145 cells were treated with DMSO (control, C), 15 nM, 60 nM or 240 nM ganetespib for either 24 or 48 h and lysates probed by western blot with the indicated antibodies.
as §1

[3] = test system: DU145 cells; experiment: Cell viability assay (AlamarBlue, 72 h); assay type: cell-based, human
Protocol: (§2) All cell lines were obtained from the ATCC (Rockville, Md., USA), with the exception of SET-2 cells which were purchased from the German Collection of Microorganisms and Cell Cultures (DSMZ, Germany). Cells were maintained and cultured according to standard techniques at 37° C. in 5% (v/v) CO2 using culture medium recommended by the supplier.
(§3) Cells were grown in 96-well plates based on optimal growth rates determined empirically for each line. Twenty-four hours after plating, cells were dosed with the indicated compound or DMSO (0.3%) for 72 h. AlamarBlue (Invitrogen, Carlsbad, Calif., USA) was added (10% v/v) to the cells, and the plates were incubated for 3 h and subjected to fluorescence detection (Ex=545 nm, Em=600 nm) in a SpectraMax Plus 384 microplate reader (Molecular Devices, Sunnyvale, Calif., USA). Data are normalized to percent of control, with IC50 values based on a four-parameter logistic dose response curve (model 205) using XLfit version 5.1 from IDBS (Guildford, U.K.).

[4] = test system: SET-2 cells; experiment: Cell viability assay (AlamarBlue, 72 h); assay type: cell-based, human
Protocol: as §2, §3

[5] = test system: HEL92.1.7 cells; experiment: Cell viability assay (AlamarBlue, 72 h); assay type: cell-based, human
Protocol: as §2, §3

[6] = test system: MV4-11 cells; experiment: Cell viability assay (AlamarBlue, 72 h); assay type: cell-based, human
Protocol: as §2, §3

[7] = Tolerability studies in non-tumor bearing mice; assay type: in vivo; conditions: i.v.
Protocol: For both models, studies were conducted at the highest non-severely toxic doses (NHSTDs) of 150 mg/kg ganetespib one-time per week or 25 mg/kg ganetespib 5×/week for 3 weeks based on prior tolerability studies conducted in non-tumor bearing mice.

[8] = test system: phospho-STAT5 and Cdk1 in MV4-11 tumors; experiment: Pharmacodynamic analysis of MV4-11 xenograft tumors (western blot); assay type: in vivo, SCID mice
Protocol: SCID mice bearing MV4-11 tumors (n=4 mice/group) were treated with vehicle or ganetespib at either 25 mg/kg or 150 mg/kg at the indicated time points between 6 h and 144 h (6 days). Tumors were resected and the levels of p-STATS, Cdk1, Hsp70 and GAPDH were determined by western blot.
as §1
To determine whether these tumor responses correlated with target modulation in vivo, additional mice bearing MV4-11 xenografts were treated with a single dose of vehicle alone or ganetespib at 25 or 150 mg/kg. Tumors were harvested between 6 and 144 hours later and pharmacodynamic analysis was performed by examining the expression levels of phospho-STAT5, Cdk1 and Hsp70 (FIG. 17). In accord with the in vivo tumor growth data, dose-dependent effects on the duration of target inhibition within the tumors were observed. […] While the relatively quick recovery of STAT5 activation should have allowed the tumor to restart growth, the more durable suppression of the cell cycle regulators appeared to have kept the growth of the tumors arrested until the next drug dosing.

[9] = test system: SET-2, HEL92.1.7, MV4-11, NCI-H1975 and DU145 cells; experiment: Cell viability assay (AlamarBlue, 72 h), group of JAK/STAT-dependent tumor cell lines; assay type: cell-based, human
Protocol: SET-2, HEL92.1.7, MV4-11, NCI-H1975 and DU145 cells were treated with ganetespib or 17-AAG over a broad dose range (0.0001 to 1 μM) for 72 h and cell viability assessed by Alamar blue staining.
as §2, §3

[10] = test system: JAK2 dependent signaling in HEL92.1.7 cells; experiment: Western blot of JAK/STAT signaling in HEL92.1.7 cells; assay type: cell-based, human
Protocol: FIG. 2 compares the more durable ganetespib durable inhibition of JAK/STAT signaling to P6. HEL92.1.7 cells were cultured in the presence of 250 nM Ganetespib or 1000 nM P6 and harvested at the indicated time points. The levels of JAK2, phosphorylated and total STAT3 and STAT5, phospho-AKT, phospho-ERK and GAPDH were determined by western blot.
as §1

[11] = test system: Cdk1, phospho-Chk2, cyclins in HEL92.1.7 cells; experiment: Western blot of cell cycle proteins in HEL92.1.7 cells; assay type: cell-based, human
Protocol: Cells were harvested at the indicated time points and the levels of total and phospho-Cdk1, phospho-Chk2 and GAPDH analyzed by western blot.
FIG. 12 illustrates the effects of ganetespib on JAK/STAT and cell cycle protein expression. HEL92.1.7 cells were treated with 100 nM ganetespib and subject to western blot to determine the levels of Cdk1, cyclin B1, cyclin A1, JAK2, total and phospho-STAT3, and GAPDH at hourly intervals over an 11 h time course.
as §1

[12] = 24 h, absence of external ligand

CC(C)c1cc(-c2nnc(O)n2-c2ccc3c(ccn3C)c2)c(O)cc1O [ganetespib, 3-(2,4-dihydroxy-5-isopropyl-phenyl)-4-(1-methyl-indol-5-yl)-5-hydroxy-[1,2,4] triazole]
JAK2 expression [1, 12]: dose-dependent decrease in JAK2 expression
constitutive STAT3 activity [1, 12]: loss of STAT3 activity
JAK/STAT signaling stimulated by exogenous IL-6 ([1]; 24 h then 15 min 50 ng/ml IL-6): blocked JAK/STAT signaling stimulation
JAK1 kinase level ([2]; 15-240 nM, 24 or 48 h): not targeted for degradation
JAK2, phospho-STAT3 and phospho-SHP2 levels ([2]; 24 h): Loss of JAK2, phospho-STAT3 and phospho-SHP2
induction of cell death [3]: potent inducer of cell death
fold more potent than 17-AAG, cell viability [4]: greater than 100 fold
fold more potent than 17-AAG, cell viability ([5]; 72 h): greater than 100 fold
IC50 ([5]; Homo sapiens, HEL 92.1.7, 72 h, Alamar blue, read-out: IC50, loss of cellular viability): 20 nM
sensitivity of cells in vitro [6]: highly sensitive
highest non-severely toxic dose ([7]; 5×/week for 3 weeks): 25 mg/kg
highest non-severely toxic dose ([7]; one-time per week for 3 weeks): 150 mg/kg
time by which STAT5 activity recovered in tumors ([8]; single 25 mg/kg dose): ≤ 24 h
time of loss of Cdk1 in tumors ([8]; single 25 mg/kg dose): 24 h
time through which Cdk1 expression remained suppressed in tumors ([8]; single 25 mg/kg dose): at least 48 hours
time to potent inhibition of STAT5 activity in tumors ([8]; single 25 mg/kg dose): ≤ 6 h
duration of repressed STAT5 activation and suppressed Cdk1 expression in tumors ([8]; single 150 mg/kg dose): more than three days
potency compared with 17-AAG, cell viability ([9]; each of the lines tested): more potent than the ansamycin Hsp90 inhibitor 17-AAG
potency in reducing cellular viability ([9]; group of human hematological and solid tumor cell lines, 72 h): low nanomolar potency
JAK2 and phospho-AKT protein levels [10]: targeted loss of JAK2 and phospho-AKT protein levels
duration of STAT signaling suppression compared to P6 [10]: suppressed STAT signaling longer
potency compared to P6, JAK/STAT inhibitory activity [10]: at least four-fold more potent
JAK2 dependent signaling (phospho-STAT3, phospho-STAT5, ERK signaling) ([10]; 250 nM ganetespib or 1000 nM P6): blocked JAK2 dependent signaling
level of phospho-Chk2 [11]: reduced
cyclins A1 and B1 levels ([11]; 100 nM, 11 h time course): temporal accumulation of cyclins A1 and B1
Cdk1 protein expression ([11]; ganetespib 250 nM or P6 1000 nM, 24-48 h): Reduced protein levels
